# Measurements reported in US8008346B2, “Chemotherapeutic agents for inhibition of protein translation” (The Royal University for the Advancement of Learning/McGill …, priority 2006, dated 2011).
# Legend:
# 80S complex formation = assay: Ribosome binding (80S complex formation) of 32P-labeled CAT mRNA in rabbit reticulocyte lysate; format: biochemical; conditions: CAT mRNA/CHX + 50 μM hippuristanol; CHX alone 22% binding
# Description: FIG. 6. Hippuristanol inhibits translation initiation. A. Hippuristanol inhibits 80S complex formation. ^32P-labeled CAT mRNA was incubated in rabbit reticulocyte lysate with cycloheximide (CHX) in the presence or absence of 50 μM hippuristanol. Complexes were resolved on glycerol gradients. Total counts recovered from each gradient and the percent mRNA bound in 80S complexes were: CAT mRNA/CHX [43,498 cpm, 22% binding] and CAT mRNA/CHX+Hipp. [45,279 cpm, 5.7% binding]. B. Hippuristanol inhibits crosslinking of eIF4Ac and eIF4B to capped mRNA. Initiation factors were chemically crosslinked to ^32P cap-labeled mRNA in the absence (lane 2) or presence of ATP (lanes 1, 3-6), 0.6 mM m^7GDP (lane 3), 0.6 mM GDP (lane 4), or 50 μM hippuristanol (lane 6). Following nuclease digestion, samples were resolved by SDS-PAGE and the gel subjected to autoradiography.
# Ribosome Binding and mRNA Crosslinking. Ribosome binding assays were performed by incubating ^32P-labelled CAT mRNA in rabbit reticulocyte lysate or wheat germ extracts in the presence of: 600 μM cycloheximide (CHX), 1 mM GMP-PNP, and/or 50 μM hippuristanol or vehicle for 10 min (33). […] Fractions of 500 μl were collected and radioactivity was determined by scintillation counting. […]
# eIF4AIf [1] = target: T1, eIF4AIf (Mus musculus, UniProt P60843); assay: UV crosslinking of alpha-32P-ATP to recombinant eIF4AIf; format: binding, murine; conditions: 50 μM
# T1 construct: inferred only from the Ni-NTA purification; made in house; host or cells: Escherichia coli BL21 (DE3) codon+
# Description: (§1) FIG. 7. Effects of hippuristanol on ATP hydrolysis, ATP binding, and RNA binding activities of eIF4A. A. Hippuristanol inhibits eIF4AIf RNA-dependent ATPase activity. The rate of ATP hydrolysis as a function of hippuristanol concentration is plotted relative to the rate obtained in the presence of vehicle (0.5% DMSO). ATP hydrolysis was measured in the presence of 2.5 μM poly (U) and monitored by thin layer chromatography. […] Samples were resolved by SDS-PAGE and subjected to autoradiography. C. The RNA binding activity of eIF4AIf is inhibited by hippuristanol. Oxidized ^32P-cap labeled CAT mRNA was incubated with recombinant eIF4AIf in the absence (lane 2) or presence of ATP (lanes 1, 3-6), 0.6 mM m^7GDP (lane 3), 0.6 mM GDP (lane 4), or 50 μM hippuristanol (lane 6). Following treatment with RNase A, samples were resolved by SDS-PAGE and subjected to autoradiography. The asterisk denotes the position of migration of a ˜30 kDa contaminant in the recombinant eIF4AIf preparation used as an internal loading reference. D. The RNA binding activity of eIF4Ac is inhibited by hippuristanol. Oxidized ^32P-cap labeled CAT mRNA was incubated with 0.7 μg of native eIF4F in the absence (lane 1) or presence (lane 2) of 50 μM hippuristanol. […]
# (§2) Recombinant eIF4AI Purification and Assays. […] Quantifications were performed on a Fujix BAS2000 phosphoimager with a Fuji imaging screen. […]
# eIF4Ac = eIF4Ac (Homo sapiens, UniProt P60842); assay: UV crosslinking of alpha-32P-ATP to native eIF4F; format: binding; conditions: 50 μM
# Description: as §1, §2
# eIF4AIf [2] = target: T1, eIF4AIf; assay: Crosslinking of oxidized 32P-cap labeled CAT mRNA to recombinant eIF4AIf (RNA binding); design: species or system murine; conditions: 50 μM
# Description: as §1
# Ribosome Binding and mRNA Crosslinking. […] Fractions of 500 μl were collected and radioactivity was determined by scintillation counting. […]
# eIF4AIf [3] = target: T1, eIF4AIf; assay: Helicase (unwinding) assay with RNA-1/RNA-11 duplex; format: biochemical, murine; conditions: 50 μM
# Description: (§3) FIG. 8. Selective inhibition of eIF4A activity by hippuristanol. A. Hippuristanol inhibits eIF4AIf-mediated helicase activity. Unwinding reactions were performed with RNA-1/RNA-11 duplex and recombinant eIF4AIf or Ded1p. The presence of 50 μM hippuristanol in the reaction is indicated above the panel. […] Double-stranded RNA duplex and single-stranded RNA molecules are schematically represented to the left of the panel. […] In vitro splicing reactions were performed with the AdML pre-mRNAs as previously described (48). AdML pre-mRNA was incubated with nuclear extracts in the presence of increasing amounts of hippuristanol (2 μM [lane4], 10 μM [lane 5] and 50 μM [lane 6]). Reaction products were resolved on 15% polyacrylamide/8M urea gels and subjected to autoradiography. The position of migration of the pre-mRNA and spliced product is denoted to the right. C. Rescue of hippuristanol-induced inhibition with recombinant eIF4AIf. […] A graphical representation from three experiments is provided below. Translational efficiency was calculated relative to luciferase values obtained from control translations containing vehicle (0.5% DMSO).
# as §2
# [4] = test system: in vitro splicing reactions; assay: In vitro splicing of AdML pre-mRNA in nuclear extracts; format: biochemical; conditions: 2 μM, 10 μM and 50 μM
# Description: as §3
# T1 sequence (P60843 whole entry): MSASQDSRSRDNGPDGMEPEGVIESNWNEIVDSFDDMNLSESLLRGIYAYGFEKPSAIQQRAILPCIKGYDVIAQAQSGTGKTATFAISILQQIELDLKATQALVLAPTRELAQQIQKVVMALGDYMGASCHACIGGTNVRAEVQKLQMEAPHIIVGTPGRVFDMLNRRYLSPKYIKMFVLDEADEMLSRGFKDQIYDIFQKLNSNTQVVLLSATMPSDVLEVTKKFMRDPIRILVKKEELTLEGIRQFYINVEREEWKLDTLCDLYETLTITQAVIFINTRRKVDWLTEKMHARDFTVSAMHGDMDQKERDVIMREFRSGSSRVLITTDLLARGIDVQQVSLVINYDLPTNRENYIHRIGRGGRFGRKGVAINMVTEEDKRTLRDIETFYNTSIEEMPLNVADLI
# Sequence of eIF4Ac (P60842 whole entry): as the sequence (P60843 whole entry) above
# Sequence of eIF4Ac (P06730 whole entry partner): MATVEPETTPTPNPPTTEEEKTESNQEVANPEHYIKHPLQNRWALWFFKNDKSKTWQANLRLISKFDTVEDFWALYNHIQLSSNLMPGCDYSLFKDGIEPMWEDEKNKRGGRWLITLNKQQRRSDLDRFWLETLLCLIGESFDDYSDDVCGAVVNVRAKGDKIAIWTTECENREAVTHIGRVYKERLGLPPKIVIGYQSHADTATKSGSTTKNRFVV
# Sequence of eIF4Ac (Q04637 whole entry partner): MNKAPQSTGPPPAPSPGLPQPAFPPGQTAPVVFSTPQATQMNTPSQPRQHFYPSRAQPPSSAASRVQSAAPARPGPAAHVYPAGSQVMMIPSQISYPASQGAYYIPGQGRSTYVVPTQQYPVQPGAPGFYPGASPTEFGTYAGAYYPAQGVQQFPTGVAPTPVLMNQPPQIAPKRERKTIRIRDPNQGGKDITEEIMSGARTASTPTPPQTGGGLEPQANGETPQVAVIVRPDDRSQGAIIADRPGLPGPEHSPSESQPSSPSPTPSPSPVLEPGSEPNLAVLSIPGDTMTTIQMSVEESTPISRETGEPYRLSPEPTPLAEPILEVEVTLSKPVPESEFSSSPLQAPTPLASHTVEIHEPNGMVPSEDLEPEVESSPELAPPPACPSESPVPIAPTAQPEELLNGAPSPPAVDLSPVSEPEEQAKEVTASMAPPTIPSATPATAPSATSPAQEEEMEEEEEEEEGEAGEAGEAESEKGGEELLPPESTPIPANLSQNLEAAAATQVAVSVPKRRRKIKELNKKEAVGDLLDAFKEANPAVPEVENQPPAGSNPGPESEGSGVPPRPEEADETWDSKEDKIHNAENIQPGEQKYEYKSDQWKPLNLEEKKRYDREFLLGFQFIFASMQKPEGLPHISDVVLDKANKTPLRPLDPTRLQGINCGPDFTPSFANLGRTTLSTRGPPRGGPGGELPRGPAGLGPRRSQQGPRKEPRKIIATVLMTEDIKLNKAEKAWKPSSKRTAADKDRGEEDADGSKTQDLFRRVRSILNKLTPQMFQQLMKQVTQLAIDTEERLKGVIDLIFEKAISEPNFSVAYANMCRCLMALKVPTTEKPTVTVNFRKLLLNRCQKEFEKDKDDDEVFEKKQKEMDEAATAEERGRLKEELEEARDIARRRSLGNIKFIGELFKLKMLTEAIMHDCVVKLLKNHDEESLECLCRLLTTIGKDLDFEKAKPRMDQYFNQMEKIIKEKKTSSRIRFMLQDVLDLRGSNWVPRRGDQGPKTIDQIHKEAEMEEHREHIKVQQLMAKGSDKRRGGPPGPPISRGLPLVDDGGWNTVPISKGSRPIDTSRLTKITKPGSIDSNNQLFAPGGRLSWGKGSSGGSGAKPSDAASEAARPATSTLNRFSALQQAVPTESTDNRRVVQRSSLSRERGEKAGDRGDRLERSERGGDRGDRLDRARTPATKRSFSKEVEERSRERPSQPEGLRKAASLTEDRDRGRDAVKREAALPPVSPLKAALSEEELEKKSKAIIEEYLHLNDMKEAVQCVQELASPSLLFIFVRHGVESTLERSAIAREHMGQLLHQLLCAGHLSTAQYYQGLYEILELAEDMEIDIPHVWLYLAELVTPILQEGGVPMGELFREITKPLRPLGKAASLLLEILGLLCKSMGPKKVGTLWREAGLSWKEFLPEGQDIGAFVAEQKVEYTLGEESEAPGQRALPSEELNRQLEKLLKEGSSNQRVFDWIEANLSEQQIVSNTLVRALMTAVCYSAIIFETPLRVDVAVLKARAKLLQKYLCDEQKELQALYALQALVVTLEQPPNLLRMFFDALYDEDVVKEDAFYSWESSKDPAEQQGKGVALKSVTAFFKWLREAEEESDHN
compound,measurement,setting,value
"C[C@H]1C[C@@]2(O[C@H]3C[C@H]4[C@@H]5CC[C@H]6C[C@H](O)CC[C@]6(C)[C@H]5[C@@H](O)C[C@]4(C)[C@H]3[C@@]2(C)O)OC1(C)C [Hippuristanol, hippuristanol]",percent mRNA bound in 80S complexes,80S complex formation,5.7%
same,ATP crosslinking to eIF4AIf,eIF4AIf [1],does not affect
same,ATP crosslinking to eIF4Ac,eIF4Ac,does not affect
same,RNA binding activity of eIF4AIf,eIF4AIf [2],inhibited
same,eIF4AIf-mediated helicase activity,eIF4AIf [3],inhibits
same,in vitro splicing reactions,[4],does not inhibit
